# Assay results taken from PubChem BioAssay (NCI).
#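 Results reflect a 48-hour exposure of cells in 96-well plates to compound at five concentrations. GI50: concentration for 50% inhibition of growth. TGI: concentration producing complete growth inhibition.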
# Key:
# Test in all cases: inhibition of tumour cell growth, NCI panel, 48 h
# NCI-H522 lung = tested on: NCI-H522 lung
# NCI-H460 lung = tested on: NCI-H460 lung
# M14 melanoma = tested on: M14 melanoma
# MCF7 breast = tested on: MCF7 breast
# HS 578T breast = tested on: HS 578T breast
# SK-MEL-5 melanoma = tested on: SK-MEL-5 melanoma
# OVCAR-4 ovarian = tested on: OVCAR-4 ovarian
# IGROV1 ovarian = tested on: IGROV1 ovarian
# KM12 colon = tested on: KM12 colon
# HL-60(TB) leukemia = tested on: HL-60(TB) leukemia
# MOLT-4 leukemia = tested on: MOLT-4 leukemia
# SN12C renal = tested on: SN12C renal
# LOX IMVI melanoma = tested on: LOX IMVI melanoma
# CCRF-CEM leukemia = tested on: CCRF-CEM leukemia
# SNB-75 CNS = tested on: SNB-75 CNS
# HCT-116 colon = tested on: HCT-116 colon
# BT-549 breast = tested on: BT-549 breast
# TK-10 renal = tested on: TK-10 renal
# NCI-H226 lung = tested on: NCI-H226 lung
# SNB-19 CNS = tested on: SNB-19 CNS
# OVCAR-3 ovarian = tested on: OVCAR-3 ovarian
# A498 renal = tested on: A498 renal
# UACC-62 melanoma = tested on: UACC-62 melanoma
# ACHN renal = tested on: ACHN renal
# SF-295 CNS = tested on: SF-295 CNS
# OVCAR-5 ovarian = tested on: OVCAR-5 ovarian
# COLO 205 colon = tested on: COLO 205 colon
# HCT-15 colon = tested on: HCT-15 colon
# EKVX NSCLC = tested on: EKVX NSCLC
# RXF 393 renal = tested on: RXF 393 renal
# T-47D breast = tested on: T-47D breast
# HT29 colon = tested on: HT29 colon
# PC-3 prostate = tested on: PC-3 prostate
# OVCAR-8 ovarian = tested on: OVCAR-8 ovarian
# HOP-62 NSCLC = tested on: HOP-62 NSCLC
# U251 CNS = tested on: U251 CNS
# NCI/ADR-RES ovarian = tested on: NCI/ADR-RES ovarian
# DU-145 prostate = tested on: DU-145 prostate
# RPMI-8226 leukemia = tested on: RPMI-8226 leukemia
# SF-539 CNS = tested on: SF-539 CNS
# SW-620 colon = tested on: SW-620 colon
# SR leukemia = tested on: SR leukemia
# HCC-2998 colon = tested on: HCC-2998 colon
# UACC-257 melanoma = tested on: UACC-257 melanoma
# A549 NSCLC = tested on: A549 NSCLC
# MDA-MB-231 breast = tested on: MDA-MB-231 breast
# SK-OV-3 ovarian = tested on: SK-OV-3 ovarian
# UO-31 renal = tested on: UO-31 renal
# MDA-MB-435 = tested on: MDA-MB-435
# NCI-H23 lung = tested on: NCI-H23 lung
# SF-268 CNS = tested on: SF-268 CNS
# 786-0 renal = tested on: 786-0 renal
# HOP-92 NSCLC = tested on: HOP-92 NSCLC
# SK-MEL-28 melanoma = tested on: SK-MEL-28 melanoma
# SK-MEL-2 melanoma = tested on: SK-MEL-2 melanoma
# MALME-3M melanoma = tested on: MALME-3M melanoma
smiles,measurement,setting,value
COc1ccc(C(=O)/C=C/c2ccc(OCc3ccc(Cl)cc3)cc2)cc1OC,GI50,NCI-H522 lung,88.4 µM
same,TGI,NCI-H522 lung,351 µM
same,GI50,NCI-H460 lung,68.6 µM
same,TGI,NCI-H460 lung,> 1000 µM
same,GI50,M14 melanoma,150 µM
same,TGI,M14 melanoma,> 1000 µM
same,GI50,MCF7 breast,47.4 µM
same,TGI,MCF7 breast,> 1000 µM
same,GI50,HS 578T breast,108 µM
same,TGI,HS 578T breast,> 1000 µM
same,GI50,SK-MEL-5 melanoma,64.3 µM
same,TGI,SK-MEL-5 melanoma,264 µM
same,GI50,OVCAR-4 ovarian,44.2 µM
same,TGI,OVCAR-4 ovarian,372 µM
same,GI50,IGROV1 ovarian,118 µM
same,TGI,IGROV1 ovarian,> 1000 µM
same,GI50,KM12 colon,171 µM
same,TGI,KM12 colon,> 1000 µM
same,GI50,HL-60(TB) leukemia,65 µM
same,TGI,HL-60(TB) leukemia,296 µM
same,GI50,MOLT-4 leukemia,276 µM
same,TGI,MOLT-4 leukemia,> 1000 µM
same,GI50,SN12C renal,221 µM
same,TGI,SN12C renal,> 1000 µM
same,GI50,LOX IMVI melanoma,91.3 µM
same,TGI,LOX IMVI melanoma,> 1000 µM
same,GI50,CCRF-CEM leukemia,190 µM
same,TGI,CCRF-CEM leukemia,> 1000 µM
same,GI50,SNB-75 CNS,111 µM
same,TGI,SNB-75 CNS,484 µM
same,GI50,HCT-116 colon,40.8 µM
same,TGI,HCT-116 colon,> 1000 µM
same,GI50,BT-549 breast,81.8 µM
same,TGI,BT-549 breast,586 µM
same,GI50,TK-10 renal,396 µM
same,TGI,TK-10 renal,> 1000 µM
same,GI50,NCI-H226 lung,63.1 µM
same,TGI,NCI-H226 lung,635 µM
same,GI50,SNB-19 CNS,42.7 µM
same,TGI,SNB-19 CNS,206 µM
same,GI50,OVCAR-3 ovarian,55.6 µM
same,TGI,OVCAR-3 ovarian,230 µM
same,GI50,A498 renal,141 µM
same,TGI,A498 renal,604 µM
same,GI50,UACC-62 melanoma,76.8 µM
same,TGI,UACC-62 melanoma,376 µM
same,GI50,ACHN renal,57.9 µM
same,TGI,ACHN renal,> 1000 µM
same,GI50,SF-295 CNS,189 µM
same,TGI,SF-295 CNS,> 1000 µM
same,GI50,OVCAR-5 ovarian,499 µM
same,TGI,OVCAR-5 ovarian,> 1000 µM
same,GI50,COLO 205 colon,253 µM
same,TGI,COLO 205 colon,> 1000 µM
same,GI50,HCT-15 colon,112 µM
same,TGI,HCT-15 colon,> 1000 µM
same,GI50,EKVX NSCLC,66.4 µM
same,TGI,EKVX NSCLC,> 1000 µM
same,GI50,RXF 393 renal,90.6 µM
same,TGI,RXF 393 renal,502 µM
same,GI50,T-47D breast,71.9 µM
same,TGI,T-47D breast,> 1000 µM
same,GI50,HT29 colon,163 µM
same,TGI,HT29 colon,> 1000 µM
same,GI50,PC-3 prostate,57.6 µM
same,TGI,PC-3 prostate,435 µM
same,GI50,OVCAR-8 ovarian,54.8 µM
same,TGI,OVCAR-8 ovarian,633 µM
same,GI50,HOP-62 NSCLC,110 µM
same,TGI,HOP-62 NSCLC,419 µM
same,GI50,U251 CNS,58.8 µM
same,TGI,U251 CNS,314 µM
same,GI50,NCI/ADR-RES ovarian,109 µM
same,TGI,NCI/ADR-RES ovarian,> 1000 µM
same,GI50,DU-145 prostate,202 µM
same,TGI,DU-145 prostate,> 1000 µM
same,GI50,RPMI-8226 leukemia,98.4 µM
same,TGI,RPMI-8226 leukemia,773 µM
same,GI50,SF-539 CNS,159 µM
same,TGI,SF-539 CNS,> 1000 µM
same,GI50,SW-620 colon,196 µM
same,TGI,SW-620 colon,> 1000 µM
same,GI50,SR leukemia,148 µM
same,TGI,SR leukemia,> 1000 µM
same,GI50,HCC-2998 colon,960 µM
same,TGI,HCC-2998 colon,> 1000 µM
same,GI50,UACC-257 melanoma,244 µM
same,TGI,UACC-257 melanoma,> 1000 µM
same,GI50,A549 NSCLC,77.1 µM
same,TGI,A549 NSCLC,> 1000 µM
same,GI50,MDA-MB-231 breast,94.6 µM
same,TGI,MDA-MB-231 breast,> 1000 µM
same,GI50,SK-OV-3 ovarian,142 µM
same,TGI,SK-OV-3 ovarian,607 µM
same,GI50,UO-31 renal,190 µM
same,TGI,UO-31 renal,> 1000 µM
same,GI50,MDA-MB-435,150 µM
same,TGI,MDA-MB-435,> 1000 µM
same,GI50,NCI-H23 lung,172 µM
same,TGI,NCI-H23 lung,> 1000 µM
same,GI50,SF-268 CNS,159 µM
same,TGI,SF-268 CNS,> 1000 µM
same,GI50,786-0 renal,71.2 µM
same,TGI,786-0 renal,470 µM
same,GI50,HOP-92 NSCLC,44.5 µM
same,TGI,HOP-92 NSCLC,365 µM
same,GI50,SK-MEL-28 melanoma,366 µM
same,TGI,SK-MEL-28 melanoma,> 1000 µM
same,GI50,SK-MEL-2 melanoma,252 µM
same,TGI,SK-MEL-2 melanoma,> 1000 µM
same,GI50,MALME-3M melanoma,176 µM
same,TGI,MALME-3M melanoma,639 µM
